Assay results from patent publication US7087623B2, “Thiazole and other heterocyclic ligands for mammalian dopamine, muscarinic and serotonin receptors and transporters, and methods of use thereof” (Sepracor Inc., priority 2001, dated 2006).
Where two headings read alike, the source gives them in different places.

Legend:
[1] = biological target: T1, human serotonin 5-HT2C receptor (Homo sapiens, UniProt P28335); experiment: Radioligand binding assay, human 5-HT2C receptors ([3H]Mesulergine)
T1 construct: expressed in transfected cells; host or cells: CHO-K1
T1 sequence (P28335 33-458): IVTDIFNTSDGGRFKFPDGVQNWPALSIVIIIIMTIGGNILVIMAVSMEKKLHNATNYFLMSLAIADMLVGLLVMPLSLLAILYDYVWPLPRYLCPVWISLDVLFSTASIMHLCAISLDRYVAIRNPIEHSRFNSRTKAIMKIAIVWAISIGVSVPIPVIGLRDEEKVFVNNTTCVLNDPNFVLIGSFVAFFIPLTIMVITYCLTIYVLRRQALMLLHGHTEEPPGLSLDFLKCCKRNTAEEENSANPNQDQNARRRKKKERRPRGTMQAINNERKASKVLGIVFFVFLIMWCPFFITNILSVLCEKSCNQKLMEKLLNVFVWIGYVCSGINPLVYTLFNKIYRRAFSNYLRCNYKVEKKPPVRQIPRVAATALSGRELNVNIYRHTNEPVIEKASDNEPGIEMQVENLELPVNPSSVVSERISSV
Protocol: (§1) The human 5-HT2a and 5-HT2b screens were conducted according to Bonhaus, D. W. et al. Br. J. Pharmacol. 1995, 115, 622. The human 5-HT2c screen was conducted according to Wolf, W. A. et al. J. Neurochem. 1997, 69, 1449. The human 5-HT6 screen was conducted according to Monsma, F. J. et al. Mol. Pharmacol. 1993, 43, 320.
CHO-K1 cells stably transfected with a plasmid encoding the human serotonin 5-HT2C receptor were used to prepare membranes in modified Tris-HCl pH 7.7 buffer using standard techniques. […] Non-specific binding was estimated in the presence of 1 μM mianserin. […] See Wolf, W. A. and Schutz, J. S. “The serotonin 5-HT2C receptor is a prominent serotonin receptor in basal ganglia: evidence from functional studies on serotonin-mediated phosphoinositide hydrolysis” J. Neurochem. 69: 1449–1458, 1997.
(§2) The human 5-HT2a and 5-HT2b screens were conducted according to Bonhaus, D. W. et al. Br. J. Pharmacol. 1995, 115, 622. The human […], W. A. et al. J. Neurochem. 1997, 69, 1449. The human 5-HT6 screen was conducted according to Monsama, F. J. et al. Mol. Pharmacol. 1993, 43, 320. The assay to human D3 receptors was conducted according to Sokoloff, P. et al. Nature 1990, 347;146. The human dopamine transporter assay was conducted according to Gu, H. et. al. J. Biol. Chem. 1994, 269 (10);7124; and Giros, B. et al. Trends. Pharmacol. Sci. 1993, 14: 43. The human muscarinic M1–M4 screens were conducted according to Buckley N. J. et al. Mol. Pharmacol. 1989, 35:469.

[2] = biological target: T2, human serotonin 5-HT2B receptor (Homo sapiens, UniProt P41595); experiment: Radioligand binding assay, human 5-HT2B receptors ([3H]LSD)
T2 construct: expressed in transfected cells; host or cells: CHO-K1
Protocol: This assay measures binding of [^3H]LSD to human serotonin 5-HT2B receptors. CHO-K1 cells stably transfected with a plasmid encoding the human serotonin 5-HT2B receptor were used to prepare membranes in modified Tris-HCl pH 7.4 buffer using standard techniques. […] Non-specific binding was estimated in the presence of 10 μM serotonin. Membranes were filtered and washed 3 times and the filters were counted to determine [^3H]LSD specifically bound. See Bonhaus, D. W. et al. “The pharmacology and distribution of human 5-hydroxytryptamine2B (5-HT2B) receptor gene products: comparison with 5-HT2A and 5-HT2C receptors” Brit.
The human 5-HT2b screen was conducted according to Wolf, W. A. et al. J. Neurochem.

[3] = biological target: T3, human dopamine D3 receptor (Homo sapiens, UniProt P35462); experiment: Radioligand binding assay, human dopamine D3 receptors ([3H]Spiperone)
T3 construct: expressed in transfected cells; host or cells: CHO
Protocol: The assay for binding to human D3 receptors was conducted according to Sokoloff, P. et al. Nature 1990, 347, 146.
CHO cells stably transfected with a plasmid encoding the human dopamine D3 receptor were used to prepare membranes in modified Tris-HCl pH 7.4 buffer using standard techniques. […] Non-specific binding was estimated in the presence of 25 μM S-(−)-sulpiride. […] See Sokoloff, P. et al. “Molecular cloning and characterization of a novel dopamine receptor (D3) as a target for neuroleptics” Nature 347: 146–151, 1990.
as §2

[4] = biological target: T4, human serotonin 5-HT6 receptor (Homo sapiens, UniProt P50406); experiment: Radioligand binding assay, human 5-HT6 receptors ([3H]LSD)
T4 construct: expressed in transfected cells; host or cells: HeLa/E6-7
Protocol: as §1
This assay measures binding of [^3H]LSD (lysergic acid diethylamide) to human serotonin 5-HT6 receptors. HeLa/E6–7 cells stably transfected with a plasmid encoding the human serotonin 5-HT6 receptor were used to prepare membranes in modified Tris-HCl pH 7.4 buffer using standard techniques. A 30 μg aliquot of membrane was incubated with 1.5 nM [^3H]LSD for 120 minutes at 37° C. Non-specific binding was estimated in the presence of 5 μM 5-HT. Membranes were filtered and washed 3 times and the filters were counted to determine [^3H]LSD specifically bound. See Monsma, Jr., F. J. et al. “Cloning and expression of a novel serotonin receptor with high affinity for tricyclic psychotropic drugs” Mol. Pharmacol. 43: 320–327, 1993.
as §2

[5] = biological target: T5, human serotonin 5-HT2A receptor (Homo sapiens, UniProt P28223); experiment: Radioligand binding assay, human 5-HT2A receptors ([3H]Ketanserin)
T5 construct: expressed in transfected cells; host or cells: CHO-K1
Protocol: as §1
CHO-K1 cells stably transfected with a plasmid encoding the human serotonin 5-HT2A receptor were used to prepare membranes in modified Tris-HCl pH 7.7 buffer using standard techniques. […] Non-specific binding was estimated in the presence of 1 μM mianserin. […] See Bonhaus, D. W. et al. “The pharmacology and distribution of human 5-hydroxytryptamine2B (5-HT2B) receptor gene products: comparison with 5-HT2A and 5-HT2C receptors” Brit. J. Pharmacol. 115: 622–628, 1995; and Saucier, C and Albert, P. R. “Identification of an endogenous 5-hydroxytryptamine2A receptor in NIH-3T3 cells: agonist-induced down-regulation involves decreases in receptor RNA and number” J. Neurochem. 68: 1998–2011, 1997.
as §2

[6] = biological target: T6, human dopamine transporter (Homo sapiens, UniProt Q01959); experiment: Binding to human dopamine transporter ([125I]RTI-55); details: human; Example 100 table; read-out: IC50 (nM) DAT
T6 construct: expressed in transfected cells; host or cells: CHO-K1
Protocol: CHO-K1 cell membranes stably transfected with a plasmid encoding the human dopamine transporter were prepared in modified Tris-HCl pH 7.4 buffer using standard techniques. […] Non-specific binding was estimated in the presence of 10 μM nomifensine. […] Trends. […]

[7] = human 5-HT2c, Example 16 table, read-out: IC50 (nM) 5-HT2c
[8] = human 5-HT2b, Example 16 table, read-out: IC50 (nM) 5-HT2b
[9] = Example 20 table, read-out: IC50 (nM) Against Human D3 Receptors
[10] = human 5-HT6, Example 16 table, read-out: IC50 (nM) 5-HT6
[11] = human 5-HT2a, Example 16 table, read-out: IC50 (nM) 5-HT2a
[12] = human, Example 100 table, read-out: IC50 (nM) D3
[13] = human, Example 100 table, read-out: IC50 (nM) 5-HT6
[14] = human, Example 100 table, read-out: IC50 (nM) 5-HT2C
[15] = human, Example 100 table, read-out: IC50 (nM) 5-HT2B
[16] = human, Example 100 table, read-out: IC50 (nM) 5-HT2A

T3 sequence (P35462 whole entry): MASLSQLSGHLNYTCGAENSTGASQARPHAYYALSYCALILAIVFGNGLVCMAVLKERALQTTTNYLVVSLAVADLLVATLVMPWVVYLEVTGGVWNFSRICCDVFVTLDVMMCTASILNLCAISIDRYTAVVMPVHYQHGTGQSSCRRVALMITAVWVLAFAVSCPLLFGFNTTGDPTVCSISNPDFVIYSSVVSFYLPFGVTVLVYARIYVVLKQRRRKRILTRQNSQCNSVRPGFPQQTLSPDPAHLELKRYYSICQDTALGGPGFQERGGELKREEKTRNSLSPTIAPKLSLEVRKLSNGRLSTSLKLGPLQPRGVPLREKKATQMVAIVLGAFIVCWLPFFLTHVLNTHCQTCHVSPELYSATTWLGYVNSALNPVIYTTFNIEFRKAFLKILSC
T6 sequence (Q01959 whole entry): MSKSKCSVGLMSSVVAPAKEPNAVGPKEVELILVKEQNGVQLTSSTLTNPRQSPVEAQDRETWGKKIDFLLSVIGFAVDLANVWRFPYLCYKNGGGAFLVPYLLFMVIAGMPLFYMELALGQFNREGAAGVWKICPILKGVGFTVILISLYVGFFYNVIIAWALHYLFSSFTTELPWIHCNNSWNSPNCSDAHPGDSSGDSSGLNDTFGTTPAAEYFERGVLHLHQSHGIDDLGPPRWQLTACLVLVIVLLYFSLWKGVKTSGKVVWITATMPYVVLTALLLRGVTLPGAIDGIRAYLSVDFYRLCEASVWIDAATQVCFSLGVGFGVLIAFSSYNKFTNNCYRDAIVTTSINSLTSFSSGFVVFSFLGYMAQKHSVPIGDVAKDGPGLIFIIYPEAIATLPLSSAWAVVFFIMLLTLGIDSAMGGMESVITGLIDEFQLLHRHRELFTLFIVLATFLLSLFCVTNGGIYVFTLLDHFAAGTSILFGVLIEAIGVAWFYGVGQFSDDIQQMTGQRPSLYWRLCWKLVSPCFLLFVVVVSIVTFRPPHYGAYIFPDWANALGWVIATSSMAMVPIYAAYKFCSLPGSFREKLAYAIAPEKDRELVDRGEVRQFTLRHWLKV
T5 sequence (P28223 whole entry): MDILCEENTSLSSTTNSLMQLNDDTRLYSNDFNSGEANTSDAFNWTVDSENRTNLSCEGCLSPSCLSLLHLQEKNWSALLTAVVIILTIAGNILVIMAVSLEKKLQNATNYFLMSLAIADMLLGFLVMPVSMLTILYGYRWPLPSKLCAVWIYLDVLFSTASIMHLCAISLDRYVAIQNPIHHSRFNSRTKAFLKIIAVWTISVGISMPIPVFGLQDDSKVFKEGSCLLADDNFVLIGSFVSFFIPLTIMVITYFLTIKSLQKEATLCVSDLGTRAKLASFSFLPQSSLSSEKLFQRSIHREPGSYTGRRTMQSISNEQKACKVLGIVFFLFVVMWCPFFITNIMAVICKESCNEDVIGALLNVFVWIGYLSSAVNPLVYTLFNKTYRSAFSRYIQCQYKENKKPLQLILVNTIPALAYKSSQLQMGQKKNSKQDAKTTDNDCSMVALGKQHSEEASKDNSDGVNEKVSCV
T4 sequence (P50406 whole entry): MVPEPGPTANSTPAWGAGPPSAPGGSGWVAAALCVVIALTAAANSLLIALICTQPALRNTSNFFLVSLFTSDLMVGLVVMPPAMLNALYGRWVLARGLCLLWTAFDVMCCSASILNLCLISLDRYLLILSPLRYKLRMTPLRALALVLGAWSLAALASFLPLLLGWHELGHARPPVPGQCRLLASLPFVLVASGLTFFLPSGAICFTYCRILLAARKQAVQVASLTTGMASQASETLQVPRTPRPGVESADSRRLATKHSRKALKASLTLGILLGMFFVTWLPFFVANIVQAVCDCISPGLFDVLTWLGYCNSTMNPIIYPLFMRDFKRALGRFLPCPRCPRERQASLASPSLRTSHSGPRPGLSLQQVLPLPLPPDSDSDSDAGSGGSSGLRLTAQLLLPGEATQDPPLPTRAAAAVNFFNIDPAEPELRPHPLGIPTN
T2 sequence (P41595 whole entry): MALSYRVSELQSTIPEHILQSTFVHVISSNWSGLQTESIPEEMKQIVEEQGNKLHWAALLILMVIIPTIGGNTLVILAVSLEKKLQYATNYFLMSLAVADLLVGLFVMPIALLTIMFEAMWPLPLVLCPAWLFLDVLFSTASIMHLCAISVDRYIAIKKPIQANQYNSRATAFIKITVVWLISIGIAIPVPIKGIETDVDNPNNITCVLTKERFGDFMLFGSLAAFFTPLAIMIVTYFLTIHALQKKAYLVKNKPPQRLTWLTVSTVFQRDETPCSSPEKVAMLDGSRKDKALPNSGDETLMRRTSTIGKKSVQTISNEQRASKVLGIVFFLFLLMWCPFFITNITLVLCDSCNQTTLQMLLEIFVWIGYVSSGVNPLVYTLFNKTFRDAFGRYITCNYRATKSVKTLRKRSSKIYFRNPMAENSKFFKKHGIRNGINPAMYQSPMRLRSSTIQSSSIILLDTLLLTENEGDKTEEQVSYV

Structure (SMILES): CN1CCN(c2nc(C3(c4ccc(F)cc4)CCOCC3)cs2)CC1 [Compound 47]
- IC50 ([1]; IC50 (nM) 5-HT2c, human 5-HT2c, Example 16 table): > 1000 nM
- IC50 [2]: > 1000 nM
- IC50 ([3]; IC50 (nM) Against Human D3 Receptors, Example 20 table): > 1000 nM
- IC50 ([4]; IC50 (nM) 5-HT6, human 5-HT6, Example 16 table): < 1000 nM
- IC50 ([5]; IC50 (nM) 5-HT2a, human 5-HT2a, Example 16 table): > 1000 nM

Structure (SMILES): CN1CCC(c2nc(C3(c4ccc(Cl)cc4)CCC3)cs2)CC1 [Compound 31]
- IC50 [1, 7]: < 1000 nM
- IC50 [2, 8]: < 1000 nM
- IC50 [3, 9]: < 1000 nM
- IC50 [4, 10]: < 1000 nM
- IC50 [5, 11]: > 1000 nM

Structure (SMILES): Clc1cccc(C2(c3csc(C4CCNCC4)n3)CCOCC2)c1 [Compound 68]
- IC50 [1, 7]: > 1000 nM
- IC50 [2, 8]: > 1000 nM
- IC50 [3, 9]: > 1000 nM
- IC50 [4, 10]: < 1000 nM
- IC50 [5, 11]: > 1000 nM

Structure (SMILES): CN1CCN(c2nc(Cc3csc4ccc(Cl)cc34)cs2)CC1 [Compound 33]
- IC50 [1, 7]: < 100 nM
- IC50 [2, 8]: < 10 nM
- IC50 [3, 9]: < 1000 nM
- IC50 [4, 10]: < 1000 nM
- IC50 [5, 11]: < 1000 nM

Structure (SMILES): Fc1ccccc1C1(c2csc(N3CCN(CC4CC4)CC3)n2)CCCC1 [Compound 122]
- IC50 [3, 12]: < 1000 nM
- IC50 [6]: < 1000 nM
- IC50 [4, 13]: < 1000 nM

Structure (SMILES): CN1CCN(c2nc(C3(c4ccc(Cl)cc4)CCCCC3)cs2)CC1 [Compound 34]
- IC50 [1, 7]: < 100 nM
- IC50 [2, 8]: < 100 nM
- IC50 [3, 9]: < 1000 nM
- IC50 [4, 10]: < 1000 nM
- IC50 [5, 11]: > 1000 nM

Structure (SMILES): CN1CCCN(c2nc(C3(c4ccccc4F)CCCC3)cs2)CC1 [Compound 139]
- IC50 [1, 14]: < 100 nM
- IC50 [2, 15]: < 100 nM
- IC50 [3, 12]: < 1000 nM
- IC50 [4, 13]: < 100 nM
- IC50 [5, 16]: < 1000 nM

Structure (SMILES): CN1CCCC1CCNc1nc(C2(c3ccc(Cl)cc3)CCOCC2)cs1 (racemic) [Compound 125, {4-[4-(4-chlorophenyl)-tetrahydropyran-4-yl]-thiazol-2-yl}-[2-(1-methyl-pyrrolidin-2-yl)-ethyl]-amine]
- IC50 [3, 12]: > 1000 nM
- IC50 [6]: > 1000 nM
- IC50 [4, 13]: > 1000 nM

Structure (SMILES): CNC1CCN(c2nc(C3(c4ccccc4F)CCCCC3)cs2)C1 (stereo not shown) [Compound 134, (1-{4-[1-(2-fluorophenyl)-cyclohexyl]-thiazol-2-yl}-pyrrolidin-3-yl)-methyl-amine]
- IC50 [3, 12]: > 1000 nM
- IC50 [6]: > 1000 nM
- IC50 [4, 13]: < 1000 nM

Structure (SMILES): CN1CCN(c2nc(C3(c4ccc(F)cc4)CCCCC3)cs2)CC1 [Compound 81]
- IC50 [1, 7]: < 1000 nM
- IC50 [2, 8]: < 100 nM
- IC50 [3, 9]: < 1000 nM
- IC50 [4, 10]: < 1000 nM
- IC50 [5, 11]: > 1000 nM

Structure (SMILES): Cc1c(-c2csc(N3CCN(C)CC3)n2)sc2ccc(Cl)cc12 [Compound 113]
- IC50 [1, 14]: < 1000 nM
- IC50 [2, 15]: > 1000 nM
- IC50 [3, 12]: > 1000 nM
- IC50 [4, 13]: > 1000 nM
- IC50 [5, 16]: < 1000 nM
